According to article PMC6877959, “β-Lactoglobulin Heptapeptide Reduces Oxidative Stress in Intestinal Epithelial Cells and Angiotensin II-Induced Vasoconstriction on Mouse Mesenteric Arteries by Induction of Nuclear Factor Erythroid 2-Related Factor 2 (Nrf2) Translocation” (Oxidative Medicine and Cellular Longevity, 2019):
Ends that are not written are not given here.

Legend:
Caco-2 cell monolayer [1] = experiment: Immunofluorescence of Caco-2 monolayers after transport (zonulin-1, integrity); format: cell-based; conditions: after transport studies, all the concentrations tested
Method: The transwell membranes from TEER experiments were washed with PBS and fixed with 4% paraformaldehyde (PFA) for 15 min. Membranes were then washed in PBS and blocked with blocking solution (0.1% Triton, 1% BSA, 0.02% sodium azide, and 50 mM ammonium chloride) for 20 min at room temperature in the dark. Afterwards, they were incubated with an anti-zonulin 1 antibody (#402200, Invitrogen, Thermo Fisher Scientific, Waltham, MA, USA) at the final concentration of 2 μg mL^−1 at room temperature for 2 hours. Immunofluorescence staining was obtained by incubating the membranes for 90 min with Alexa Fluor 488 donkey anti-rabbit IgG (#A31573) at the final concentration of 4 μg mL^−1 (Invitrogen). The nuclei were counterstained with DAPI (1 : 2000). Membranes were cut down with an operating knife blade along the margin of the chamber and were mounted on slides using VectaMount solution (AQ Vector Laboratories, Burlingame, CA, USA). Slides were examined under a Nikon fluorescence inverted microscope (Nikon Instruments Europe, Firenze, Italy) and then analyzed through ImageJ software as previously described.
Figure S3: Fluorescence micrograph of the Caco-2 cell monolayers. Caco-2 cell monolayers treated with BRP2 (50 µM, 2 h) from TEER experiments were stained for tight junction protein expression of zonulin-1 (FITC, green). Nuclei were counterstained with DAPI (blue). […]

[2] = Caco-2 cell monolayer permeation (transepithelial transport); format: in vitro ADME; conditions: human, Caco-2, 21-day, transwell, apical to basolateral, HBSS 25 mM HEPES pH 7.4, 37°C, time point 120 min, UHPLC-MS/MS, means ± S.D.
Method: (§1) The colorectal adenocarcinoma (Caco-2) cell line was purchased from ATCC (Rockville, MD, USA). Cells were maintained in high-glucose DMEM (4.5 g/L) supplemented with 2 mM L-glutamine and 10% (v/v) heat-inactivated foetal bovine serum. Cells were cultured at 37°C in a humidified 5% CO2 atmosphere. To induce enterocytic Caco-2 differentiation, cells were seeded in a 12-well multiwell in transwell inserts (PET membrane, 0.4 μm pore size, 1.12 cm^2 surface area) at 2.6 × 10^5 cells/cm^2 and maintained for 21 days in complete medium. The medium was changed every second day. By 21 days, the monolayers become completely differentiated.
(§2) The integrity of the monolayers was evaluated by measurement of the transepithelial electrical resistance (TEER) using an EVOM2 epithelial voltohmmeter (World Precision Instruments, Sarasota, FL, USA). Only monolayers showing TEER higher than 300 Ω × cm^2 were then used for transport experiments. The integrity of the monolayers was checked before, during, and after the experiment. The filters were washed for 15-20 min at 37°C adding prewarmed Hank's balanced salt solution buffered with 25 mM HEPES and NaHCO3 (0.35 g/L) at pH 7.4 to the apical (0.4 mL) and to the basolateral (1.2 mL) transwell compartments, as previously described. For transport experiments, donor solution containing BRP2 peptide at the desired concentration (100-1 μM) was added to the apical compartment for the apical to basolateral (absorptive) direction. Samples from the receiving compartment were collected at different time points up to 120 min (15, 30, 60, 90, and 120 min). Samples from the donor compartment were collected at time 0 and at the end of the experiment (120 min) for the calculation of the mass balance.
(§3) Samples were stored at −20°C until UHPLC-MS/MS analyses to measure the concentration of BRP2 in both compartments (for detailed conditions, see Supporting Information ).
(§4) The apparent permeability coefficient (Papp) was calculated as described according to (1) Papp=dMR^t/dt×1/A×CD0, where MR is the amount of substance in the receiver chamber, A (cm^2) is the surface area of the barrier, and CD0 (μM) is the initial donor concentration. The reduction in donor concentration was also taken after every sampling (see Supporting Information ).
(§5) Instead, for the quantification of BRP2 in donor and receiver chamber, the stock solution was diluted with fresh HBSS to a series of concentrations ranged of 125-0.5 nM to establish the calibration curve (y = 0.000001x – 0,000363; R^2 ≥ 0.9997).
(§6) The apparent permeability values of BRP2 were calculated according to the Eq. 1. This calculation requires that the sink conditions are fulfilled, that is, the ratio CR/CD is less than 0.1 at each sampling point used in the analysis. […] The donor concentration was recalculated by subtracting the cumulative amount transported to the receiver chamber for each time interval:
(§7) CD (ti) and CR (ti) (μM): donor and receiver chamber concentrations calculated at each sample occasion (i) from the donor and receiver concentrations at the previous occasion CD (ti–1) and CR (ti–1), respectively; f=1–VS/VR: sample replacement diluition factor; VS (cm^3): sample volume; VR (cm^3): receiver chamber volume; VD (cm^3): donor chamber volume. ^[28]
(§8) recovery (%) = (CD(fin) × VD +∑ (CS(t) × VS(t)) + CR(fin) × VR(fin)) × 100 / (CD(0) × VD(0)) […]

Caco-2 cell monolayer [3] = experiment: as above; format: in vitro ADME; conditions: UHPLC-MS/MS
Method: as §1, §2, §3, §4, §5, §6, §7, §8

SFNPTQL [BRP2, Ser-Phe-Asn-Pro-Thr-Gln-Leu]
Caco-2 cell monolayer integrity (zonulin-1 expression) (Caco-2 cell monolayer [1]): preserved | Papp A→B at 120 min, 1 μM ([2]; BRP2 1 μM): 0.53 ± 0.15 ×10⁻⁶ cm/s | Papp A→B at 120 min, 50 μM ([2]; BRP2 50 μM): 0.2 ± 0.05 ×10⁻⁶ cm/s | Papp A→B at 120 min, 100 μM ([2]; BRP2 100 μM): 0.27 ± 0.07 ×10⁻⁶ cm/s | Papp (Caco-2 cell monolayer [3]; BRP2 10 μM, Caco-2, 21-day, transwell, apical to basolateral, HBSS 25 mM HEPES pH 7.4, 37°C, time point 120 min, means ± S.D.): 0.53 ± 0.01 10^-6 cm/s | mass balance (recovery) (Caco-2 cell monolayer [3]; Caco-2 transport, donor sampled at 0 and 120 min): more than 80%
